Source: publication PMC6540285, “Evaluation of Protein Kinase Inhibitors with PLK4 Cross-Over Potential in a Pre-Clinical Model of Cancer” (International Journal of Molecular Sciences, 2019)

How the values were obtained:
MAPK14 (p38 alpha) = MAPK14 (p38 alpha) (Homo sapiens, UniProt Q16539); experiment: SelectScreen kinase profiling, ZLYTE; format: biochemical
CDC42 BPA (MRCKA) = CDC42 BPA (MRCKA) (Homo sapiens, UniProt Q5VT25); experiment: SelectScreen kinase profiling, ZLYTE; format: biochemical
PI4K2A (PI4K2 alpha) = PI4K2A (PI4K2 alpha) (Homo sapiens, UniProt Q9BTU6); experiment: SelectScreen kinase profiling, Adapta; format: biochemical
STK39 (STLK3) = STK39 (STLK3) (Homo sapiens, UniProt Q9UEW8); experiment: SelectScreen kinase profiling, LanthaScreen binding
Excerpt: (§1) Kinase Technology % Inhibition Avg Kinase Technology % Inhibition Avg […]

TEK (TIE2) R849W = TEK (TIE2) R849W (Homo sapiens, UniProt Q02763, R849W); experiment: as above
Excerpt: as §1

STK32C (YANK3) = STK32C (YANK3) (Homo sapiens, UniProt Q86UX6); experiment: as above
Excerpt: as §1

ZAK = ZAK (Homo sapiens, UniProt Q9NYL2); experiment: as above
Excerpt: as §1

TGFBR2 = TGFBR2 (Homo sapiens, UniProt P37173); experiment: as above; conditions: TGFBR2, 10 µM
Excerpt: as §1

WNK3 = WNK3 (Homo sapiens, UniProt Q9BYP7); experiment: as above; conditions: WNK3, 10 µM
Excerpt: as §1

TEC = TEC (Homo sapiens, UniProt P42680); experiment: as above
Excerpt: as §1

WNK2 = WNK2 (Homo sapiens, UniProt Q9Y3S1); experiment: as above; conditions: WNK2, 10 µM
Excerpt: as §1

STK33 = STK33 (Homo sapiens, UniProt Q9BYT3); experiment: as above; conditions: STK33, 10 µM
Excerpt: as §1

WNK1 = WNK1 (Homo sapiens, UniProt Q9H4A3); experiment: as above; conditions: WNK1, 10 µM
Excerpt: as §1

TNK2 (ACK) = TNK2 (ACK) (Homo sapiens, UniProt Q07912); experiment: as above
Excerpt: as §1

TTK = TTK (Homo sapiens, UniProt P33981); experiment: as above
Excerpt: as §1

TLK2 = TLK2 (Homo sapiens, UniProt Q86UE8); experiment: as above; conditions: TLK2, 10 µM
Excerpt: as §1

ULK2 = ULK2 (Homo sapiens, UniProt Q8IYT8); experiment: as above; conditions: ULK2, 10 µM
Excerpt: as §1

STK38L (NDR2) = STK38L (NDR2) (Homo sapiens, UniProt Q9Y2H1); experiment: as above
Excerpt: as §1

TAOK3 (JIK) = TAOK3 (JIK) (Homo sapiens, UniProt Q9H2K8); experiment: as above
Excerpt: as §1

VRK2 = VRK2 (Homo sapiens, UniProt Q86Y07); experiment: as above; conditions: VRK2, 10 µM
Excerpt: as §1

GRK1 = GRK1 (Homo sapiens, UniProt Q15835); experiment: as above; conditions: GRK1, 10 µM
PIM2 = PIM2 (Homo sapiens, UniProt Q9P1W9); experiment: SelectScreen kinase profiling, ZLYTE; format: biochemical; conditions: PIM2, 10 µM
CDK1/cyclin B = CDK1/cyclin B (Homo sapiens, UniProt P06493); experiment: SelectScreen kinase profiling, ZLYTE; format: biochemical
ADRBK1 (GRK2) = ADRBK1 (GRK2) (Homo sapiens, UniProt P25098); experiment: SelectScreen kinase profiling, ZLYTE; format: biochemical
D283 cells = format: cell-based; conditions: D283, read-out: MTT: IC50 of the proliferation assay
ULK3 = ULK3 (Homo sapiens, UniProt Q6PHR2); experiment: SelectScreen kinase profiling, LanthaScreen binding; conditions: ULK3, 10 µM
[1] = biological target: PIK3CA/PIK3R3 (p110 alpha/p55 gamma) (Homo sapiens, UniProt P42336); experiment: SelectScreen kinase profiling, Adapta; format: biochemical; conditions: PIK3CA/PIK3R3, 10 µM
NTRK1 (TRKA) = NTRK1 (TRKA) (Homo sapiens, UniProt P04629); experiment: SelectScreen kinase profiling, ZLYTE; format: biochemical
CHUK (IKK alpha) = CHUK (IKK alpha) (Homo sapiens, UniProt O15111); experiment: SelectScreen kinase profiling, Adapta; format: biochemical
DDR2 = DDR2 (Homo sapiens, UniProt Q16832); experiment: SelectScreen kinase profiling, LanthaScreen binding; conditions: DDR2, 10 µM
JAK1 = JAK1 (Homo sapiens, UniProt P23458); experiment: SelectScreen kinase profiling, ZLYTE; format: biochemical; conditions: JAK1, 10 µM
IKBKB (IKK beta) = IKBKB (IKK beta) (Homo sapiens, UniProt O14920); experiment: SelectScreen kinase profiling, ZLYTE; format: biochemical
ABL2 (Arg) = ABL2 (Arg) (Homo sapiens, UniProt P42684); experiment: SelectScreen kinase profiling, ZLYTE; format: biochemical
PAK6 = PAK6 (Homo sapiens, UniProt Q9NQU5); experiment: SelectScreen kinase profiling, ZLYTE; format: biochemical; conditions: PAK6, 10 µM
PDGFRB (PDGFR beta) = PDGFRB (PDGFR beta) (Homo sapiens, UniProt P09619); experiment: SelectScreen kinase profiling, ZLYTE; format: biochemical
RPS6KA6 (RSK4) = RPS6KA6 (RSK4) (Homo sapiens, UniProt Q9UK32); experiment: SelectScreen kinase profiling, ZLYTE; format: biochemical
JAK2 = JAK2 (Homo sapiens, UniProt O60674); experiment: SelectScreen kinase profiling, ZLYTE; format: biochemical; conditions: JAK2, 10 µM
AMPK (A2/B2/G3) = AMPK (A2/B2/G3) (Homo sapiens, UniProt P54646); experiment: SelectScreen kinase profiling, ZLYTE; format: biochemical
MYLK4 = MYLK4 (Homo sapiens, UniProt Q86YV6); experiment: SelectScreen kinase profiling, LanthaScreen binding; conditions: MYLK4, 10 µM
IRAK1 = IRAK1 (Homo sapiens, UniProt P51617); experiment: SelectScreen kinase profiling, Adapta; format: biochemical; conditions: IRAK1, 10 µM
IRAK1, sequence (P51617 whole entry): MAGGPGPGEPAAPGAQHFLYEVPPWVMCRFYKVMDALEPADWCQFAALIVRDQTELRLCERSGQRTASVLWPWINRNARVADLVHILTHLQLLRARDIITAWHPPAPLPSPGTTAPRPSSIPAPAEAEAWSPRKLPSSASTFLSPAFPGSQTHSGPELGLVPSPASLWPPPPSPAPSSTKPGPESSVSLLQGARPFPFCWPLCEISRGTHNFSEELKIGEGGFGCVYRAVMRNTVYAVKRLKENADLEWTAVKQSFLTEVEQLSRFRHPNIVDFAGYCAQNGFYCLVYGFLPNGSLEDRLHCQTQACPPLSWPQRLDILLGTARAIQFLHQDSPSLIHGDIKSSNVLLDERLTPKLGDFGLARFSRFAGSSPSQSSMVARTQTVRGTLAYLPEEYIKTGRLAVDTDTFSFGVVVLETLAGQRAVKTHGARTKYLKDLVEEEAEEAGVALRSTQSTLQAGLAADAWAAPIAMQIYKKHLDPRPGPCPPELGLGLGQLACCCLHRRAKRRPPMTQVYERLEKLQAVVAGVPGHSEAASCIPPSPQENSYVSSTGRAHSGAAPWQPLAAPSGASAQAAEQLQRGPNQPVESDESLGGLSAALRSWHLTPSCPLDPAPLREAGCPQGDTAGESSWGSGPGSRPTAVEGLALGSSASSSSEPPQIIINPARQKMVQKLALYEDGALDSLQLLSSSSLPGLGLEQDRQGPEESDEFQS

PI4K2A (PI4K2 alpha), sequence (Q9BTU6 whole entry): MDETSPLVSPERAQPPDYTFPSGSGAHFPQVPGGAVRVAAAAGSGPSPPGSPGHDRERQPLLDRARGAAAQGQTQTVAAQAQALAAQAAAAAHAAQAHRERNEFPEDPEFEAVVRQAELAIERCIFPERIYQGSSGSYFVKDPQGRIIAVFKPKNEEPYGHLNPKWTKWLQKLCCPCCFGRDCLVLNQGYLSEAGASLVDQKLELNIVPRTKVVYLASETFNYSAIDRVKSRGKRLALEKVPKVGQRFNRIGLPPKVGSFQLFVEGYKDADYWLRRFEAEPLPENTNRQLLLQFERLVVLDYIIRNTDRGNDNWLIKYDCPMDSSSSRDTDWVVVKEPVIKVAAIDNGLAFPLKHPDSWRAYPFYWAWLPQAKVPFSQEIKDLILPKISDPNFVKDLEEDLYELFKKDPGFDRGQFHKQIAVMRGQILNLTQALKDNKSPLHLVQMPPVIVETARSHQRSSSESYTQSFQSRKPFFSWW
ABL2 (Arg), sequence (P42684 whole entry): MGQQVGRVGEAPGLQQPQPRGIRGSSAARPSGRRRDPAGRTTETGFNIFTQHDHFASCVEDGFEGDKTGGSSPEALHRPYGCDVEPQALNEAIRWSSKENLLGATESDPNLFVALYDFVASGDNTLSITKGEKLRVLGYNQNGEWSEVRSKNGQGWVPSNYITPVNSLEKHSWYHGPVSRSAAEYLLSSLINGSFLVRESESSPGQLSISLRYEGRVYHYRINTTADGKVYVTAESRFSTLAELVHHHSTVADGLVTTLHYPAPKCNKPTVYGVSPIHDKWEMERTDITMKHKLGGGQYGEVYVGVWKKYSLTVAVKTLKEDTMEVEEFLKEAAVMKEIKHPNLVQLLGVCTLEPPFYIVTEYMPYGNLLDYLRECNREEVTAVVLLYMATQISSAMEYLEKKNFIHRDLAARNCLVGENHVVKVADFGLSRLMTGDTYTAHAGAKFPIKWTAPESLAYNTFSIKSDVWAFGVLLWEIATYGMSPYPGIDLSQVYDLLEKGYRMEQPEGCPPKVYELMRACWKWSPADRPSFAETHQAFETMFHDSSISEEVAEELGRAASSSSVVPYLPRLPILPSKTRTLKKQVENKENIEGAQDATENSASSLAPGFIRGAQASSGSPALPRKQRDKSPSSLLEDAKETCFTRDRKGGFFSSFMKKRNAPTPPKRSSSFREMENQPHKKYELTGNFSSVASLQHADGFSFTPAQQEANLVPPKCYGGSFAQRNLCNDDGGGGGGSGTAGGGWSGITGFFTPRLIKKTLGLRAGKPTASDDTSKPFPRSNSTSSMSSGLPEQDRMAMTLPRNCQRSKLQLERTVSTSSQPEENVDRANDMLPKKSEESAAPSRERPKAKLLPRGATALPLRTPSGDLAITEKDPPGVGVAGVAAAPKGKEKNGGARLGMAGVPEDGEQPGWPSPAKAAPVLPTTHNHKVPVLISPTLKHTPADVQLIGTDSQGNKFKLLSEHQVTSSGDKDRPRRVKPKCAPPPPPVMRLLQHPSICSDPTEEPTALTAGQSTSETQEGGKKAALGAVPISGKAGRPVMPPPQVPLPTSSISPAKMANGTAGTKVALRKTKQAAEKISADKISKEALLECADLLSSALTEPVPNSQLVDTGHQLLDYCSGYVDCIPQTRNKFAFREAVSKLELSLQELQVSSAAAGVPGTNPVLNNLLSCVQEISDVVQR
WNK2, sequence (Q9Y3S1 whole entry): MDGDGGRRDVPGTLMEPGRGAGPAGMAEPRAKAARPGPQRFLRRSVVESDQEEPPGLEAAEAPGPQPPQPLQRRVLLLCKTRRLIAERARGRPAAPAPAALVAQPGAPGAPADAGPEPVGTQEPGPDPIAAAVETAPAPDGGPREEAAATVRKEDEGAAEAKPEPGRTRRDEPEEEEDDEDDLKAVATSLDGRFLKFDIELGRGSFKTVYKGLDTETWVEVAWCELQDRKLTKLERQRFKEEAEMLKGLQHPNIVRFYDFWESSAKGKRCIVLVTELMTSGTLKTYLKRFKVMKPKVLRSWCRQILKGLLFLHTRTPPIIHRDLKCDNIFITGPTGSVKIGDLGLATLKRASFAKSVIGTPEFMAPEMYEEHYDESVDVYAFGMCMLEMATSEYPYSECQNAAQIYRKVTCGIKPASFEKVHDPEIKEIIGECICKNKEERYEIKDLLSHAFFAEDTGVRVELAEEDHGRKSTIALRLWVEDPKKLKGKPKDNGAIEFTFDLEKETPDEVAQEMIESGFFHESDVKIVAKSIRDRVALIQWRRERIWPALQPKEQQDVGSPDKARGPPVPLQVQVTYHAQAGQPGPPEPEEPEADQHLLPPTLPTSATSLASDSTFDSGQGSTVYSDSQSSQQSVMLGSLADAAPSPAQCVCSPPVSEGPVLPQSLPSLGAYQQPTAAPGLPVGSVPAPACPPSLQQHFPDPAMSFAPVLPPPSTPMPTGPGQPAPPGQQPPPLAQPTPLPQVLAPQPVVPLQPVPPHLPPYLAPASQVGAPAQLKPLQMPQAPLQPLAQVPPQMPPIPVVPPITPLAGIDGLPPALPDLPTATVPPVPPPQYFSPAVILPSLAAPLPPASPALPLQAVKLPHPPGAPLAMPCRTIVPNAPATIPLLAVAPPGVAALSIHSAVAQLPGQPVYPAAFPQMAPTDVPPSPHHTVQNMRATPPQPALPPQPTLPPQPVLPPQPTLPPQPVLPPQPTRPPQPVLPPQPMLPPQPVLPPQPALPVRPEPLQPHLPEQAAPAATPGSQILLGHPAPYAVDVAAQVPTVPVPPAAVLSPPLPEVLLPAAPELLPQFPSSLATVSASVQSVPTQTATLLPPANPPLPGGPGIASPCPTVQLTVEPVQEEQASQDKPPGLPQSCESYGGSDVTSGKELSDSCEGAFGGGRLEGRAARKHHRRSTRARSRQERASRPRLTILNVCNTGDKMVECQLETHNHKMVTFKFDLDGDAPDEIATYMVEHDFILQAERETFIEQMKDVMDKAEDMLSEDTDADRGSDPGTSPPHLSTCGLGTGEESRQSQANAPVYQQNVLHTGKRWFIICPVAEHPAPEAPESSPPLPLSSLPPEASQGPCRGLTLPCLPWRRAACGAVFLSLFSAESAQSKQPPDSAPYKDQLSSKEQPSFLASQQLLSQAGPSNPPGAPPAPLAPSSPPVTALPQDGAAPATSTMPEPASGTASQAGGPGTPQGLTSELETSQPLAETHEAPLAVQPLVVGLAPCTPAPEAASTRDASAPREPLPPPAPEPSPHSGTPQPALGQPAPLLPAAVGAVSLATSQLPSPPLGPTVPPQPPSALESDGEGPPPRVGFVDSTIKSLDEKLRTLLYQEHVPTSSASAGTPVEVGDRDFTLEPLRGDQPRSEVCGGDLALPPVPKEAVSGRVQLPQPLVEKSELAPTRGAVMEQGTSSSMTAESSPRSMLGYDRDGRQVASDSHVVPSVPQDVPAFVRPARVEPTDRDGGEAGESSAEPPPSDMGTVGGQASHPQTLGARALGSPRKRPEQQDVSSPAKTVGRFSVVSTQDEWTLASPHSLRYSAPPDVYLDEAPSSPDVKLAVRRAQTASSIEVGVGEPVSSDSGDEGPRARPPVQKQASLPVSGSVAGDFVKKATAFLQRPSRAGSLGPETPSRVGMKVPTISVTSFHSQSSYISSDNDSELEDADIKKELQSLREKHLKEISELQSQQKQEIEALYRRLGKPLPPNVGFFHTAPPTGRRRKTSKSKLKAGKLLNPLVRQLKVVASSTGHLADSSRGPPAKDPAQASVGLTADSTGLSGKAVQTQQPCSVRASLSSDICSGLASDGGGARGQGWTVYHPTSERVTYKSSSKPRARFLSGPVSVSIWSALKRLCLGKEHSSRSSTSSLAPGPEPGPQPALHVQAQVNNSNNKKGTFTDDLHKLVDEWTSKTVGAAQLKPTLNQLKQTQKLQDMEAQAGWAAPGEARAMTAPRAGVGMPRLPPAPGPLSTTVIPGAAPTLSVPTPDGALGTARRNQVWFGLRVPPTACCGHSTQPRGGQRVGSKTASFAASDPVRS
MYLK4, sequence (Q86YV6 whole entry): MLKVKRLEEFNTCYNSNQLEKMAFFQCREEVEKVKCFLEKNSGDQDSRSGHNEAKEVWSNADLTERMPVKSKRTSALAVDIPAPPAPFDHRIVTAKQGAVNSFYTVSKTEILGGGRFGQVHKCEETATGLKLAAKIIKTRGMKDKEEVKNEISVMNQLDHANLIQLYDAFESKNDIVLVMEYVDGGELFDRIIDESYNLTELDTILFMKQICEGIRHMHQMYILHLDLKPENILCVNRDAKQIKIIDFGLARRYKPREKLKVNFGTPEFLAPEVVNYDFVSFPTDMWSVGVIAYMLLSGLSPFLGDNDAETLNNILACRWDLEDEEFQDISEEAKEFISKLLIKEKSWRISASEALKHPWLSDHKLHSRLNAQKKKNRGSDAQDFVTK

In the case of `O=C(c1ccc(/C=C/c2n[nH]c3ccccc23)cc1)N1CCNCC1` [KW-2449], the inhibition at 10 µM (MAPK14 (p38 alpha)) is reported as 33%, the inhibition at 10 µM (CDC42 BPA (MRCKA)) is reported as 32% and the inhibition at 10 µM (PI4K2A (PI4K2 alpha)) is reported as 4%. The inhibition at 10 µM (STK39 (STLK3)) was 38%, the inhibition at 10 µM (TEK (TIE2) R849W) was -5% and the inhibition at 10 µM (STK32C (YANK3)) was 62%. It also gave an inhibition at 10 µM (ZAK) of 77%, an inhibition at 10 µM (TGFBR2) of 77% and an inhibition at 10 µM (WNK3) of 7%. It also gave an inhibition at 10 µM (TEC) of -9%, an inhibition at 10 µM (WNK2) of 1% and an inhibition at 10 µM (STK33) of 81%. For the same molecule, the inhibition at 10 µM (WNK1) was 2%, the inhibition at 10 µM (TNK2 (ACK)) was 71% and the inhibition at 10 µM (TTK) was 54%. The inhibition at 10 µM (TLK2) was 33%, the inhibition at 10 µM (ULK2) was 56% and the inhibition at 10 µM (STK38L (NDR2)) was 59%. For the same molecule, the inhibition at 10 µM (TAOK3 (JIK)) was 25%, the inhibition at 10 µM (VRK2) was 32% and the inhibition at 10 µM (GRK1) was 25%. For the same molecule, the inhibition at 10 µM (PIM2) was 8%, the inhibition at 10 µM (CDK1/cyclin B) was 88% and the inhibition at 10 µM (ADRBK1 (GRK2)) was 38%. For the same molecule, the IC50 (D283 cells) was 8.05 µM, the inhibition at 10 µM (ULK3) was 5% and the inhibition at 10 µM [1] was 4%. For the same molecule, the inhibition at 10 µM (NTRK1 (TRKA)) was 98%, the inhibition at 10 µM (CHUK (IKK alpha)) was 96% and the inhibition at 10 µM (DDR2) was 53%. It also gave an inhibition at 10 µM (JAK1) of 94%, an inhibition at 10 µM (IKBKB (IKK beta)) of 66% and an inhibition at 10 µM (ABL2 (Arg)) of 98%. The inhibition at 10 µM (PAK6) was 60%, the inhibition at 10 µM (PDGFRB (PDGFR beta)) was 76% and the inhibition at 10 µM (RPS6KA6 (RSK4)) was 97%. It also gave an inhibition at 10 µM (JAK2) of 98%, an inhibition at 10 µM (AMPK (A2/B2/G3)) of 98% and an inhibition at 10 µM (MYLK4) of 71%. It also gave an inhibition at 10 µM (IRAK1) of 99%.
